The values that follow come from ChEMBL document CHEMBL4052699, “Synthesis, in vitro and in vivo giardicidal activity of nitrothiazole-NSAID chimeras displaying broad antiprotozoal spectrum” (Bioorg Med Chem Lett, 2017).

The test system of data set [1] is Trypanosoma cruzi. The data set can be described thus: Antiprotozoal activity against Trypanosoma cruzi MHOM/MX/1994/Ninoa incubated for 72 hrs by Neubauer chamber based cell counting method. The class given is functional.
Data set [2] concerns Giardia intestinalis. The data set can be described thus: Potency index, ratio of ED50 for nitazoxanide to ED50 for test compound for antigiardial activity against Giardia intestinalis WB trophozoites infected in CD1 mouse dosed intragastrically 6 days after infection and measured 48 hrs post dose. The class given is functional, Giardia duodenalis.
Data set [3] has as its system Trichomonas vaginalis. As to the kind of experiment: Antiprotozoal activity against Trichomonas vaginalis GT3 trophozoites incubated for 48 hrs. The class given is functional. The following applies: GT3, 48 h.
Data set [4] in a line: Cytotoxicity against African green monkey Vero cells incubated for 24 to 48 hrs by SRB assay. The data set is classed as cell-based. The settings on record: chlorocebus sabaeus. (In SRB staining, fixed cells bind dye roughly in proportion to their protein.)
Data set [5] deals with Giardia intestinalis. As to the kind of experiment: Potency index, ratio of ED50 for metronidazole to ED50 for test compound for antigiardial activity against Giardia intestinalis WB trophozoites infected in CD1 mouse dosed intragastrically 6 days after infection and measured 48 hrs post dose. The class given is functional, Giardia duodenalis.
The test system of data set [6] is Trypanosoma cruzi. As to the kind of experiment: Potency index, ratio of IC50 for benznidazole to IC50 for test compound for antiprotozoal activity against Trypanosoma cruzi MHOM/MX/1994/Ninoa incubated for 72 hrs by Neubauer chamber based cell counting method. The data set is classed as functional.
A short description of data set [7]: Selectivity index, ratio of CC50 for cytotoxicity against African green monkey Vero cells to IC50 for Giardia intestinalis Giardia intestinalis IMSS:0696:1 (genotype A).
For another data set, the system named is Leishmania mexicana. As to the kind of experiment: Antiprotozoal activity against Leishmania mexicana MHOM/MX/ISETGS incubated for 72 hrs by Neubauer chamber based cell counting method. The class given is functional.
Data set [8] deals with Leishmania amazonensis. As to the kind of experiment: Antiprotozoal activity against Leishmania amazonensis IFLA/BR/67/PH-8 incubated for 72 hrs by Neubauer chamber based cell counting method. The data set is classed as functional. The settings on record: IFLA/BR/67/PH-8, 72 h.
Data set [9] has as its system Giardia intestinalis. The data set can be described thus: Antigiardial activity against Giardia intestinalis WB trophozoites infected in CD1 mouse dosed intragastrically 6 days after infection and measured 48 hrs post dose. The data set is classed as functional. The settings on record: Giardia duodenalis, po.
Data set [10] in a line: Selectivity index, ratio of CC50 for cytotoxicity against African green monkey Vero cells to IC50 for Trichomonas vaginalis GT3.
Data set [11] concerns Giardia intestinalis. As to the kind of experiment: Antiprotozoal activity against Giardia intestinalis IMSS:0696:1 (genotype A) trophozoites incubated for 48 hrs. The settings on record: Giardia duodenalis. The data set is classed as functional.
Data set [12] can be described thus: Selectivity index, ratio of CC50 for cytotoxicity against African green monkey Vero cells to IC50 for Leishmania mexicana MHOM/MX/ISETGS. The class given is toxicity, cell-based. The settings on record: read-out: Ratio CC50/IC50.
Data set [13] relates to Trichomonas vaginalis. As to the kind of experiment: Potency index, ratio of IC50 for metronidazole to IC50 for test compound for antiprotozoal activity against Trichomonas vaginalis GT3 trophozoites incubated for 48 hrs. The class given is functional.
For data set [14], the system named is Trichomonas vaginalis. As to the kind of experiment: Potency index, ratio of IC50 for nitazoxanide to IC50 for test compound for antiprotozoal activity against Trichomonas vaginalis GT3 trophozoites incubated for 48 hrs. The class given is functional.
The subject of data set [15] is Leishmania amazonensis. The data set can be described thus: Potency index, ratio of IC50 for nitazoxanide to IC50 for test compound for antiprotozoal activity against Leishmania amazonensis IFLA/BR/67/PH-8 incubated for 72 hrs by Neubauer chamber based cell counting method. The data set is classed as functional.
For data set [16], the system named is Giardia intestinalis. The data set can be described thus: Potency index, ratio of IC50 for nitazoxanide to IC50 for test compound for antiprotozoal activity against Giardia intestinalis IMSS:0696:1 (genotype A) trophozoites incubated for 48 hrs. The class given is functional, Giardia duodenalis.
Data set [17] relates to Leishmania amazonensis. The data set can be described thus: Potency index, ratio of IC50 for pentamidine to IC50 for test compound for antiprotozoal activity against Leishmania amazonensis IFLA/BR/67/PH-8 incubated for 72 hrs by Neubauer chamber based cell counting method. The class given is functional.
The test system of data set [18] is Giardia intestinalis. The data set can be described thus: Potency index, ratio of IC50 for metronidazole to IC50 for test compound for antiprotozoal activity against Giardia intestinalis IMSS:0696:1 (genotype A) trophozoites incubated for 48 hrs. The data set is classed as functional, Giardia duodenalis.

“And” between values parts separate entries of the source, which are not always exact repeats. Equal entries are not always repeated.

In the case of `CC(C)(Oc1ccc(Cl)cc1)C(=O)Nc1ncc([N+](=O)[O-])s1`, the IC50 (as a rule, the point on the concentration scale where inhibition reaches its midpoint) in the data set with Trypanosoma cruzi [1] was determined as 12.2 µM; with Trichomonas vaginalis [3], 32 nM; in the data set with Leishmania mexicana, 16.6 µM; with Leishmania amazonensis [8], 3.43 µM; in the data set with Giardia intestinalis [11], 172 nM. For the same compound, the “Ratio ED50” value in the data set with Giardia intestinalis [2] and in the data set on Giardia intestinalis [5] was 50 - 300 throughout. Besides, the midpoint of cytotoxicity in data set [4], the CC50, lay at 22 µM. Also, the “Ratio IC50” value in the data set on Trypanosoma cruzi [6] was 2; with Trichomonas vaginalis [13], 10; in the data set on Trichomonas vaginalis [14], 2. In addition, the “Ratio CC50/IC50” value in data set [7] turned out to be 127; in data set [10] it was 686. The ED50 (as a rule, the midpoint of the dose-response relation) with Giardia intestinalis [9] was 0.00384 mg/kg and 0.0113 µmol/kg. In addition, the selectivity ratio in [12] came out at 6.
Regarding `O=[N+]([O-])c1cncs1`, the IC50 with Trypanosoma cruzi [1] is more than 50 µM; in the data set with Trichomonas vaginalis [3], 52900 nM; with Leishmania mexicana, more than 50 µM; in the data set with Leishmania amazonensis [8], more than 50 µM; with Giardia intestinalis [11] it was 29600 nM. Also, it took 441 µM to reach half-maximal cytotoxicity in data set [4] (CC50).
For `COc1ccc2c(c1)c(CC(=O)Nc1ncc([N+](=O)[O-])s1)c(C)n2C(=O)c1ccc(Cl)cc1`, the IC50 was more than 50 µM with Trypanosoma cruzi [1]; 134 nM in the data set with Trichomonas vaginalis [3]; 6.77 µM in the data set with Leishmania mexicana; 0.88 µM with Leishmania amazonensis [8]; 145 nM in the data set with Giardia intestinalis [11]. Further, the “Ratio ED50” value in the data set with Giardia intestinalis [2] was found to be 1015; with Giardia intestinalis [5], 321. In addition, the CC50 (as a rule, the concentration that lowers cell viability or growth by half) in data set [4] was 13 µM. Moreover, the “Ratio IC50” value in the data set on Leishmania amazonensis [15] turned out to be 8; in the data set on Giardia intestinalis [16], 8; in the data set on Leishmania amazonensis [17], 16; in the data set with Giardia intestinalis [18], 38. Moreover, the entries for the “Ratio CC50/IC50” value in data set [7] and in [10] were 89 and 96, respectively. Further, the ED50 with Giardia intestinalis [9] was 0.00171 mg/kg and 0.00353 µmol/kg. Besides, the selectivity ratio in data set [12] came out at 15.
Turning to `COc1ccc2cc([C@H](C)C(=O)Nc3ncc([N+](=O)[O-])s3)ccc2c1`, the IC50 came out at 12.9 µM in the data set with Trypanosoma cruzi [1]; 162 nM in the data set with Trichomonas vaginalis [3]; 25.5 µM with Leishmania mexicana; 3.64 µM with Leishmania amazonensis [8]; 221 nM in the data set on Giardia intestinalis [11]. In addition, the “Ratio ED50” value in the data set on Giardia intestinalis [2] and in the data set on Giardia intestinalis [5] was 50 - 300 in each case. Further, it took 180 µM to reach half-maximal cytotoxicity in data set [4] (CC50). Besides, the “Ratio IC50” value with Trypanosoma cruzi [6] was determined as 2. For the same compound, the “Ratio CC50/IC50” value is given as 815 in data set [7] and 1112 in data set [10]. Besides, the ED50 in the data set with Giardia intestinalis [9] is 0.00766 mg/kg and 0.0215 µmol/kg. In data set [12], the selectivity ratio was 49.
For the compound `O=C(Cc1ccccc1Nc1c(Cl)cccc1Cl)Nc1ncc([N+](=O)[O-])s1`, the IC50 stood at 15.7 µM with Trypanosoma cruzi [1]; 218 nM in the data set on Trichomonas vaginalis [3]; 6.12 µM in the data set on Leishmania mexicana; 1.89 µM in the data set on Leishmania amazonensis [8]; 147 nM with Giardia intestinalis [11]. In addition, the “Ratio IC50” value in the data set with Trypanosoma cruzi [6] is recorded as 2; in the data set on Giardia intestinalis [16], 8; in the data set on Giardia intestinalis [18] it was 38.
With `CC(C)Cc1ccc(C(C)C(=O)Nc2ncc([N+](=O)[O-])s2)cc1` (racemic), the half-maximal inhibitory concentration (IC50) with Trypanosoma cruzi [1] was found to be 15 µM; in the data set on Trichomonas vaginalis [3], 45 nM; with Leishmania mexicana, 17.1 µM; in the data set on Leishmania amazonensis [8], 6.42 µM; in the data set with Giardia intestinalis [11], 227 nM. Moreover, the “Ratio ED50” value in the data set on Giardia intestinalis [2] and in the data set with Giardia intestinalis [5] was 50 - 300 throughout. The CC50 in data set [4] amounted to 201 µM. Further, the “Ratio IC50” value with Trypanosoma cruzi [6] stood at 2; with Trichomonas vaginalis [13], 7; in the data set with Trichomonas vaginalis [14], 1.7. For the same compound, the “Ratio CC50/IC50” value was 887 in [7] and 4475 in data set [10]. Further, the ED50 with Giardia intestinalis [9] is 0.00399 mg/kg and 0.012 µmol/kg. In addition, in [12], the selectivity ratio amounted to 31.
On to `O=C(Cn1ccnc1[N+](=O)[O-])NCc1ccccc1` [BENZNIDAZOLE], for which the IC50 in the data set with Leishmania mexicana and with Leishmania amazonensis [8] was more than 50 µM throughout.
As for `Cc1ncc([N+](=O)[O-])n1CCO` [METRONIDAZOLE], the IC50 in the data set on Trypanosoma cruzi [1], with Leishmania mexicana and with Leishmania amazonensis [8] was more than 50 µM in each case. The entries for the “Ratio CC50/IC50” value in data set [7] and in [10] were 72 and 1134, respectively. Further, the selectivity ratio in data set [12] was less than 7.
Turning to `CCCCCCCCCCCCCCCCOP(=O)([O-])OCC[N+](C)(C)C` [MILTEFOSINE], the IC50 turned out to be 25.2 µM in the data set with Trypanosoma cruzi [1]; 20000 nM with Trichomonas vaginalis [3]; 2.03 µM in the data set with Leishmania mexicana; 1.35 µM in the data set with Leishmania amazonensis [8]; 20000 nM in the data set on Giardia intestinalis [11]. Further, in [4], half-maximal cytotoxicity (CC50) was put at 0.12 µM.
On to `CC1CS(=O)(=O)CCN1/N=C/c1ccc([N+](=O)[O-])o1` (stereo unspecified) [NIFURTIMOX], for which the values for the IC50 in the data set on Trypanosoma cruzi [1] and in the data set with Leishmania mexicana were 7.45 µM and 3.1 µM, respectively.
In the case of `CC(=O)Oc1ccccc1C(=O)Nc1ncc([N+](=O)[O-])s1` [NITAZOXANIDE], the “Ratio IC50” value in the data set on Trypanosoma cruzi [6] is listed as 2. Also, the ED50 in the data set with Giardia intestinalis [9] was 1.1 mg/kg and 3.58 µmol/kg. The selectivity ratio in [12] turned out to be 115.
In the data set with Trypanosoma cruzi [1], `N=C(N)c1ccc(OCCCCCOc2ccc(C(=N)N)cc2)cc1` [PENTAMIDINE] yielded an IC50 of more than 50 µM. Besides, the results for the “Ratio CC50/IC50” value in [7] and in data set [10] were 11 and 12.3, respectively. Moreover, the selectivity ratio in [12] was 3.2.
